pIC50: −log10 of the molar value. Where two headings read alike, the source gives them in different places.
Columns and labels:
[1] = system: nonselective muscarinic receptor; assay: Binding at the nonselective muscarinic receptor; design: species or system rat; settings: for pIC50: rat cerebral cortex
[2] = target: serotonin (5-HT) uptake site (Rattus norvegicus, UniProt P31652)
[3] = target: human recombinant norepinephrine (NE) uptake site (Homo sapiens, UniProt P23975); assay: Binding at the norepinephrine (NE) uptake site
Chain of human recombinant norepinephrine (NE) uptake site (P23975 whole entry): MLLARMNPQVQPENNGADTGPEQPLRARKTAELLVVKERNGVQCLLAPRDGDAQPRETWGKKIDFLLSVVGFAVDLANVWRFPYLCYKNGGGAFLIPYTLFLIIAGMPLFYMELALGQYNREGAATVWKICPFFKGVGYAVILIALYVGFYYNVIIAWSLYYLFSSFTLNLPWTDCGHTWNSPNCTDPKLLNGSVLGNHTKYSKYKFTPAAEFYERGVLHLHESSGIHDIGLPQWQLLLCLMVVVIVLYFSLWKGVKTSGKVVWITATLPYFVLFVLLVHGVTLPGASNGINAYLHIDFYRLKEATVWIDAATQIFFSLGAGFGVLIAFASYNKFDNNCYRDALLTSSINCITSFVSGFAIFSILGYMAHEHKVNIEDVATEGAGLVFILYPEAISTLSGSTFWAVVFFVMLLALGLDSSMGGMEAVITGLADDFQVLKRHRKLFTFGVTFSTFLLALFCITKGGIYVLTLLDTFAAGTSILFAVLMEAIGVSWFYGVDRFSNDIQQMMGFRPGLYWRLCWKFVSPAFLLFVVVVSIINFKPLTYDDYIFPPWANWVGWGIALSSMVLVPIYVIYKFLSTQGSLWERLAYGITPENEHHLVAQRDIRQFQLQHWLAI

[4] = human recombinant NE uptake site, read-out: Binding IC50 NE Uptake

Chain of serotonin (5-HT) uptake site (P31652 whole entry): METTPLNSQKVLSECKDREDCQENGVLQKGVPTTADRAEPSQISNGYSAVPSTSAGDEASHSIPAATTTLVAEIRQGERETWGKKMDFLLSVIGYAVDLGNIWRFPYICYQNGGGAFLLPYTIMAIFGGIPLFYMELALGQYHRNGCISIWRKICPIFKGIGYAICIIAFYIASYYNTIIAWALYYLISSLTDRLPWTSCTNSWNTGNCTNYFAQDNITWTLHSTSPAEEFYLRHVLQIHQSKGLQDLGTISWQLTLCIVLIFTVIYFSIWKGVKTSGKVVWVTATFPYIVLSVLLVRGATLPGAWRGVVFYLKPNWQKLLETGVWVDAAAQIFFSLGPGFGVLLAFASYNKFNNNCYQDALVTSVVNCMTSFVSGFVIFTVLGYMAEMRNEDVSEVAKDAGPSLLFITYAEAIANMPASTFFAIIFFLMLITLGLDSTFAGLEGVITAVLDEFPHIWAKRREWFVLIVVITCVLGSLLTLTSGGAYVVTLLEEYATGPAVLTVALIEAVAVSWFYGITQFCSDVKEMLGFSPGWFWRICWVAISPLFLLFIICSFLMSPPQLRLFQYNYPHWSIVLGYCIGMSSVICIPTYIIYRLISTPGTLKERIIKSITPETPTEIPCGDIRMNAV

CC(C)C[C@@H](N)C1(c2ccc(Cl)cc2)CCC1 [(R)-didesMe]
affinity / activity at muscarinic site (in words) [1]: negligible activity
5-HT uptake site binding / inhibition (in words) [2]: potent inhibitors
NE uptake site binding / inhibition (in words) [3]: potent inhibitors
pIC50 [3, 4]: 7.89

CN[C@H](CC(C)C)C1(c2ccc(Cl)cc2)CCC1 [(R)-desMe]
affinity / activity at muscarinic site (in words) [1]: negligible activity
5-HT uptake site binding / inhibition (in words) [2]: potent inhibitors
NE uptake site binding / inhibition (in words) [3]: potent inhibitors
pIC50 [3, 4]: 8.40

CN1[C@@H]2CC[C@H]1C[C@@H](OC(=O)C(CO)c1ccccc1)C2 (stereo partly shown) [Atropine, reference compound]
pIC50 [1]: 9.51

CN[C@@H](CC(C)C)C1(c2ccc(Cl)cc2)CCC1 [(S)-desMe]
pIC50 [1]: 6.18
pIC50 [3]: 6.06

CNC(CC(C)C)C1(c2ccc(Cl)cc2)CCC1 (racemic) [(R/S)-desMe, 1-(4-chlorophenyl)-N-methyl-2-(2-methylpropyl)-cyclobutanamethamine]
pIC50 [1]: 5.93
pIC50 [3]: 8.00

— patent publication US6974837B2, “Compositions comprising sibutramine metabolites in combination with phosphodiesterase inhibitors” (Sepracor Inc., priority 1999, dated 2005)
